Measured values reported in patent EP0968998A1, “Cosmetic compositions, ceramide analogues with anti-elastase activity and process for their preparation” (ELF ATOCHEM S.A., priority 1998, dated 2000).

Experiments:
[1] = system: stratum corneum; test: Skin barrier improvement: transepidermal (insensible) water loss (PIE), Servomed evaporimeter, cream applied to inner forearm; format: in vivo, volontaires sains ayant une peau sèche; conditions: cream with 0,5 % (ex. 7, témoins), 1 % (ex. 4, 8), 5 % (ex. 6)
Excerpt: (§1) Les exemples qui suivent permettent d'illustrer l'invention. […] Les valeurs sont exprimées en nombre d'onde par centimètre. - Résonance magnétique nucléaire (RMN) Les spectres sont réalisés au moyen d'un appareil BRUCKER DRX 500, à 500 MHz (^1H) et 125 MHz (^13C) dans le DMSO-d6. La calibration de l'appareil est effectuée au moyen de DMSO. Les déplacements chimiques sont exprimés en ppm. […] On utilise le N-succinyl-(Ala)3-p-nitroanilide en solution dans le tétrahydrofurane et une solution d'élastase à 100 mg/ml dans un mélange de glycérol et de tampon acétate de sodium (50/50; v/v), pH5. L'activité de l'enzyme est mesurée à 37°C dans 100 mM de tampon Tris-HCI, pH8 contenant 0,01 % de Triton X-100 (volume/volume) et 0,02 % d'azide de sodium (poids/volume). Le céramide à tester, solubilisé dans le tétrahydrofurane (concentration en THF = 0,5 % en volume) est préincubé en présence de l'enzyme (0,05 mg/ml) dans le tampon pendant 5 minutes à 37°C. On ajoute le N-succinyl-(Ala)3-p-nitroanilide (concentration finale : 250 µM) et on mesure la libération de la p-nitroaniline dans une cuve en quartz par spectrophotométrie à 410 nm. La capacité inhibitrice du céramide est exprimée en pourcentage d'inhibition (% I) selon la relation : %I = (1 -(Vi)/(Vo))×100 [formula] dans laquelle Vi et Vo sont les vitesses d'apparition de la p-nitroaniline en présence et en absence d'inhibiteur respectivement. - Mesure de l'amélioration de la barrière cutanée a) mesure de la Perte Insensible en Eau (PIE) La mesure de la PIE permet de quantifier la très faible quantité d'eau qui diffuse passivement à travers le stratum corneum. Ce paramètre représente un très bon index de la fonction barrière du stratum corneum. Cette méthode est surtout utilisée pour contrôler l'efficacité de formules cosmétiques qui, contenant certains types de lipides sont capables de diminuer la PIE et, en conséquence, d'empêcher la déshydratation du stratum corneum. La sonde est laissée en contact de la peau pendant 2 minutes environ de façon à atteindre une position d'équilibre. PIE = D'(dP)/(dx)(gradient de pression de vapeur) [formula] Les valeurs sont exprimées en g/m^2/heure et permettent de calculer un delta de PIE = PIE (peau traitée) - PIE (peau témoin). L'appareil utilisé est un Evaporimètre EPI de Servomed. Les mesures sont effectuées sur deux groupes de 15 volontaires sains ayant une peau sèche, avant l'application du produit (t=0) et après l'application (t=0,5 heure, 1 heure, 3 heures et 6 heures) sur la face interne des deux avant-bras. L'analogue de céramide selon l'invention ou le céramide témoin est incorporé dans une crème ayant la composition suivante (en % en poids) :
(§2) La teneur en analogue de céramide dans la crème est égale à 0,5 % (exemple 7), 1 % (exemples 4 et 8) et 5 % (exemple 6), et celle des céramides témoins (a) et (b) est égale à 0,5 %. La diminution des valeurs de PIE signifie une amélioration de la qualité de la barrière cutanée qui traduit un meilleur pouvoir retentionnel de l'eau au niveau de la couche cornée et donc une meilleure hydratation. b) hydratation cutanée L'eau peut être considérée comme un dipôle électrique capable de conduire l'électricité. Le transport d'électricité dans un champ donné est proportionnel à la quantité d'eau présente dans le stratum corneum. Plus une peau est riche en eau et plus le courant électrique passe rapidement entre 2 électrodes. Il existe donc un lien entre l'hydratation du stratum corneum et les modifications des propriétés électriques. Les mesures de capacitance, liée à la constante diélectrique de la peau, sont réalisées par le Cornéomètre Courage+Khazaka CM 200, dont la sonde présente une surface de contact avec la peau de 49 mm^2; cette sonde est appliquée avec une pression constante sur la surface cutanée à mesurer, et l'indice d'hydratation directement proportionnel au taux hydrique de surface est instantané.

[2] = system: stratum corneum; test: Skin hydration: capacitance measurement (Corneometer Courage+Khazaka CM 200), hydration index, cream applied to forearm; format: in vivo, volontaires sains ayant une peau sèche; conditions: cream with 0,5 % (ex. 7, témoins), 1 % (ex. 4, 8), 5 % (ex. 6)
Excerpt: as §1, §2

[3] = t=0 heure (before application, baseline)

CCCCCCCCCCCCCCCCCC(=O)NC(CC)(CO)COC(=O)CCCCCCCCCCCCCCCCC (stereo not shown) [Exemple 4, 1-stéaroyl-2-éthyl-2-stéaroylamino-1,3-propanediol]
Perte Insensible en Eau (PIE) M±s ([1]; t=0,5 heure after application): 3,89±0,85 g/m^2/heure
Perte Insensible en Eau (PIE) M±s [1, 3]: 4,52±0,79 g/m^2/heure
Perte Insensible en Eau (PIE) M±s ([1]; t=1 heure after application): 2,95±1,15 g/m^2/heure
Perte Insensible en Eau (PIE) M±s ([1]; t=3 heures after application): 4,30±0,97 g/m^2/heure
Perte Insensible en Eau (PIE) M±s ([1]; t=6 heures after application): 4,00±1,24 g/m^2/heure
Indice d'Hydratation (IH) M±s ([2]; t=0,5 heure after application): 66,87±7,50
Indice d'Hydratation (IH) M±s [2, 3]: 64,69±9,04
Indice d'Hydratation (IH) M±s ([2]; t=1 heure after application): 65,56±6,96
Indice d'Hydratation (IH) M±s ([2]; t=3 heures after application): 62,31±7,17
Indice d'Hydratation (IH) M±s ([2]; t=6 heures after application): 62,91±7,78
